Data: ChEMBL document CHEMBL1201862, “PubChem BioAssay data set” (2004)
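Following 48 hours of exposure in 96-well plates, responses at five concentrations were used to interpolate endpoints linearly. The concentration for 50% growth inhibition is given as GI50.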 Active and inactive are the calls of the source. No stated cut-off is given here; in the data, active = GI50 up to about 1.1 µM and inactive = higher.

What was measured:
Assay in all cases: growth of human tumour cells (NCI), 48 h
SK-MEL-28 = tested on: SK-MEL-28
SK-OV-3 = tested on: SK-OV-3
UO-31 = tested on: UO-31
SNB-19 = tested on: SNB-19
MDA-MB-231 = tested on: MDA-MB-231
NCI-H23 = tested on: NCI-H23
Hs-578T = tested on: Hs-578T
SK-MEL-5 = tested on: SK-MEL-5
U-251 = tested on: U-251
SN12C = tested on: SN12C
RXF 393 = tested on: RXF 393
SK-MEL-2 = tested on: SK-MEL-2
MDA-MB-435 = tested on: MDA-MB-435
OVCAR-5 = tested on: OVCAR-5
Malme-3M = tested on: Malme-3M
SF-295 = tested on: SF-295
HT-29 = tested on: HT-29
NCI-H522 = tested on: NCI-H522
TK-10 = tested on: TK-10
K562 = tested on: K562

| Compound | GI50 (SK-MEL-28) | GI50 (SK-OV-3) | GI50 (UO-31) | GI50 (SNB-19) | GI50 (MDA-MB-231) | GI50 (NCI-H23) | GI50 (Hs-578T) | GI50 (SK-MEL-5) | GI50 (U-251) | GI50 (SN12C) | GI50 (RXF 393) | GI50 (SK-MEL-2) | GI50 (MDA-MB-435) | GI50 (OVCAR-5) | GI50 (Malme-3M) | GI50 (SF-295) | GI50 (HT-29) | GI50 (NCI-H522) | GI50 (TK-10) | GI50 (K562) |
| --- | --- | --- | --- | --- | --- | --- | --- | --- | --- | --- | --- | --- | --- | --- | --- | --- | --- | --- | --- | --- |
| Nc1nc(N)c2c(Cl)c(CNc3ccc(Cl)c(Cl)c3)ccc2n1 | 0.78 µM (active) | 0.574 µM (active) | 0.0294 µM (active) | 0.486 µM (active) | 1.52 µM (inactive) | 0.0102 µM (active) | 1.6 µM (inactive) | < 0.01 µM (active) | < 0.0215 µM (active) | < 0.104 µM (active) | 0.337 µM (active) | 3.11 µM (inactive) | < 0.01 µM (active) | < 0.01 µM (active) | 0.471 µM (active) | < 0.01 µM (active) | < 0.01 µM (active) | 0.0499 µM (active) | 0.256 µM (active) | < 0.01 µM (active) |
| CC(C)NC(=O)OCc1c(COC(=O)NC(C)C)c(-c2cc[n+](COC(=O)Cc3ccccc3)cc2)n2c1CCC2 | > 100 µM (inactive) | > 100 µM (inactive) | > 100 µM (inactive) | > 100 µM (inactive) | > 100 µM (inactive) | 56.6 µM (inactive) | > 100 µM (inactive) | > 100 µM (inactive) | > 100 µM (inactive) | > 100 µM (inactive) | > 100 µM (inactive) | > 100 µM (inactive) | > 100 µM (inactive) | > 100 µM (inactive) | > 100 µM (inactive) | 92 µM (inactive) | > 100 µM (inactive) | > 100 µM (inactive) | > 100 µM (inactive) | > 100 µM (inactive) |
| Cc1ccc2c3c4c(ccc13)C(C)(C)OC4=C(C(C)C)C2=O | 91.6 µM (inactive) | > 100 µM (inactive) | > 100 µM (inactive) | > 100 µM (inactive) | > 100 µM (inactive) | 70.5 µM (inactive) | 8.36 µM (inactive) | 32.2 µM (inactive) | 79.8 µM (inactive) | > 100 µM (inactive) | 17.4 µM (inactive) | 17 µM (inactive) | 59.7 µM (inactive) | > 100 µM (inactive) | 39.3 µM (inactive) | 88.3 µM (inactive) | 13.8 µM (inactive) | 26.8 µM (inactive) | 67 µM (inactive) | 59.3 µM (inactive) |
| CCN(CC)c1ccc2c(c1)Oc1ccc(N(C(C)=O)c3ccccc3)cc1C21OC(=O)c2ccccc21 (stereo not given) | > 100 µM (inactive) | > 100 µM (inactive) | 23.7 µM (inactive) | > 100 µM (inactive) | > 100 µM (inactive) | > 68.4 µM (inactive) | 58.3 µM (inactive) | 24.2 µM (inactive) | > 77.3 µM (inactive) | > 100 µM (inactive) | > 26.1 µM (inactive) | > 100 µM (inactive) | 21 µM (inactive) | > 100 µM (inactive) | 53.3 µM (inactive) | 41.8 µM (inactive) | 32.3 µM (inactive) | 62.7 µM (inactive) | > 100 µM (inactive) | 12.6 µM (inactive) |
| CN(C)CCCNc1ccc2nnn3c4ccc(O)cc4c(=O)c1c23 | 6.52 µM (inactive) | 5.6 µM (inactive) | 2.06 µM (inactive) | 6.61 µM (inactive) | 10.7 µM (inactive) | 3.56 µM (inactive) | 1.41 µM (inactive) | 5.73 µM (inactive) | 2.73 µM (inactive) | 2.95 µM (inactive) | 0.149 µM (active) | 12.7 µM (inactive) | 8.22 µM (inactive) | 9.98 µM (inactive) | 10.3 µM (inactive) | 4.37 µM (inactive) | 2.74 µM (inactive) | 3.7 µM (inactive) | 4.67 µM (inactive) | 7.26 µM (inactive) |
| O=C(O)c1nc2ccc(C(F)(F)F)cc2[nH]c1=O | > 100 µM (inactive) | > 100 µM (inactive) | > 100 µM (inactive) | > 100 µM (inactive) | > 100 µM (inactive) | > 100 µM (inactive) | > 100 µM (inactive) | > 100 µM (inactive) | > 100 µM (inactive) | > 100 µM (inactive) | > 100 µM (inactive) | > 100 µM (inactive) | > 100 µM (inactive) | > 100 µM (inactive) | > 100 µM (inactive) | > 100 µM (inactive) | > 100 µM (inactive) | > 100 µM (inactive) | > 100 µM (inactive) | > 100 µM (inactive) |
